Results reported in the NIST ThermoML archive (doi:10.1021/je301123j).
Numbers after ± are expanded uncertainties.

Experiment: xn = mol fraction of the nth substance listed
Details: for surface tension liquid-gas: Ring tensiometer; for mass density / speed of sound / viscosity: 100 kPa, Liquid

CCN1CCCC1=O [1-ethyl-2-pyrrolidinone] + NCCO
Details | mass density [kg/m3] | speed of sound [m/s] | surface tension liquid-gas [mN/m] | viscosity [mPa·s]
293.15 K, x1 = 0.1 | 1014.83 ± 1.1 | 1694.5 ± 4 | 44.9 ± 0.9 | 16.56 ± 0.2
293.15 K, x1 = 0.2002 | 1012.06 ± 1.1 | 1652.1 ± 4 | 42.4 ± 0.8 | 11.56 ± 0.14
293.15 K, x1 = 0.2999 | 1008.77 ± 1.2 | 1621.1 ± 4 | 41.1 ± 0.8 | 8.317 ± 0.11
293.15 K, x1 = 0.4002 | 1006.13 ± 1.2 | 1596 ± 4 | 39.8 ± 0.8 | 6.255 ± 0.083
293.15 K, x1 = 0.4999 | 1002.53 ± 1.2 | 1575.8 ± 4 | 39.1 ± 0.8 | 4.742 ± 0.066
293.15 K, x1 = 0.5996 | 999.47 ± 1.3 | 1554.4 ± 4 | 38.3 ± 0.8 | 3.762 ± 0.053
293.15 K, x1 = 0.7002 | 998.41 ± 1.3 | 1540.5 ± 4 | 37.7 ± 0.8 | 3.101 ± 0.044
293.15 K, x1 = 0.7999 | 997.76 ± 1.4 | 1529.1 ± 4.1 | 37.3 ± 0.8 | 2.641 ± 0.039
293.15 K, x1 = 0.8997 | 997.35 ± 1.5 | 1519.5 ± 4.1 | 37.1 ± 0.8 | 2.325 ± 0.035
293.15 K, x1 = 1 | 997.91 ± 1.6 | 1513.2 ± 4.1 | 36.5 ± 0.8 | 2.132 ± 0.032
303.15 K, x1 = 0.1 | 1006.71 ± 1.1 | 1661.1 ± 4 | 43.7 ± 0.8 | 10.66 ± 0.13
303.15 K, x1 = 0.2002 | 1003.8 ± 1.1 | 1617 ± 4 | 41.2 ± 0.8 | 7.68 ± 0.096
303.15 K, x1 = 0.2999 | 1000.38 ± 1.1 | 1582.4 ± 3.9 | 39.8 ± 0.8 | 6.051 ± 0.077
303.15 K, x1 = 0.4002 | 997.65 ± 1.2 | 1560.4 ± 3.9 | 38.5 ± 0.8 | 4.76 ± 0.065
303.15 K, x1 = 0.4999 | 993.9 ± 1.2 | 1539.5 ± 4 | 37.6 ± 0.8 | 3.526 ± 0.049
303.15 K, x1 = 0.5996 | 990.78 ± 1.3 | 1517.3 ± 4 | 36.7 ± 0.8 | 2.912 ± 0.041
303.15 K, x1 = 0.7002 | 989.74 ± 1.4 | 1503.1 ± 4 | 36.1 ± 0.8 | 2.446 ± 0.035
303.15 K, x1 = 0.7999 | 989.12 ± 1.5 | 1491.9 ± 4 | 36.2 ± 0.8 | 2.147 ± 0.032
303.15 K, x1 = 0.8997 | 988.75 ± 1.6 | 1481.7 ± 4.1 | 35.7 ± 0.8 | 1.918 ± 0.029
303.15 K, x1 = 1 | 989.34 ± 1.6 | 1475 ± 4.1 | 35.2 ± 0.8 | 1.777 ± 0.027
313.15 K, x1 = 0.1 | 998.53 ± 1 | 1628 ± 4 | 42.7 ± 0.8 | 7.237 ± 0.089
313.15 K, x1 = 0.2002 | 995.42 ± 1.1 | 1582.8 ± 3.9 | 40.2 ± 0.8 | 5.477 ± 0.07
313.15 K, x1 = 0.2999 | 991.88 ± 1.1 | 1552.5 ± 3.9 | 38.7 ± 0.8 | 4.386 ± 0.058
313.15 K, x1 = 0.4002 | 989.14 ± 1.2 | 1527.9 ± 3.9 | 37 ± 0.8 | 3.553 ± 0.048
313.15 K, x1 = 0.4999 | 985.23 ± 1.3 | 1502.9 ± 3.9 | 35.9 ± 0.8 | 2.733 ± 0.038
313.15 K, x1 = 0.5996 | 982.08 ± 1.4 | 1480.5 ± 3.9 | 34.9 ± 0.8 | 2.322 ± 0.033
313.15 K, x1 = 0.7002 | 981.06 ± 1.5 | 1466.1 ± 4 | 34.5 ± 0.8 | 1.99 ± 0.029
313.15 K, x1 = 0.7999 | 980.46 ± 1.6 | 1454.9 ± 4 | 35 ± 0.8 | 1.775 ± 0.026
313.15 K, x1 = 0.8997 | 980.14 ± 1.6 | 1444.2 ± 4 | 34.6 ± 0.8 | 1.616 ± 0.024
313.15 K, x1 = 1 | 980.76 ± 1.7 | 1437.6 ± 4.1 | 34.2 ± 0.8 | 1.515 ± 0.023
323.15 K, x1 = 0.1 | 990.31 ± 1.1 | 1594.2 ± 3.9 | – | 5.201 ± 0.067
323.15 K, x1 = 0.2002 | 986.95 ± 1.1 | 1549.2 ± 3.9 | – | 4.011 ± 0.052
323.15 K, x1 = 0.2999 | 983.29 ± 1.2 | 1517.9 ± 3.9 | – | 3.311 ± 0.044
323.15 K, x1 = 0.4002 | 980.53 ± 1.3 | 1493.2 ± 3.9 | – | 2.734 ± 0.037
323.15 K, x1 = 0.4999 | 976.53 ± 1.4 | 1467 ± 3.9 | – | 2.183 ± 0.031
323.15 K, x1 = 0.5996 | 973.35 ± 1.5 | 1443.8 ± 3.9 | – | 1.884 ± 0.027
323.15 K, x1 = 0.7002 | 972.34 ± 1.6 | 1429.5 ± 3.9 | – | 1.659 ± 0.024
323.15 K, x1 = 0.7999 | 971.78 ± 1.6 | 1418 ± 4 | – | 1.503 ± 0.022
323.15 K, x1 = 0.8997 | 971.5 ± 1.7 | 1407.6 ± 4 | – | 1.384 ± 0.021
323.15 K, x1 = 1 | 972.16 ± 1.8 | 1400.6 ± 4 | – | 1.31 ± 0.02

CCN1CCCC1=O [1-ethyl-2-pyrrolidinone] + OCCN(CCO)CCO
Details | mass density [kg/m3] | speed of sound [m/s] | surface tension liquid-gas [mN/m] | viscosity [mPa·s]
293.15 K, x1 = 0.1001 | 1112.5 ± 2.1 | 1611.4 ± 3.9 | 44.7 ± 0.8 | 570.35 ± 47
293.15 K, x1 = 0.2 | 1101.3 ± 2 | 1598.1 ± 3.9 | 43.4 ± 0.8 | 312.31 ± 20
293.15 K, x1 = 0.3 | 1089.95 ± 2 | 1585.4 ± 3.9 | 42 ± 0.8 | 164.25 ± 7
293.15 K, x1 = 0.4004 | 1077.59 ± 1.9 | 1574.5 ± 3.9 | 40.9 ± 0.8 | 81.22 ± 1.8
293.15 K, x1 = 0.5001 | 1066.06 ± 1.9 | 1565.5 ± 4 | 40.1 ± 0.8 | 41.49 ± 0.66
293.15 K, x1 = 0.6002 | 1053.3 ± 1.8 | 1555.6 ± 4 | 39.2 ± 0.8 | 21.52 ± 0.35
293.15 K, x1 = 0.7002 | 1040.32 ± 1.8 | 1545.9 ± 4 | 38.3 ± 0.8 | 11.54 ± 0.19
293.15 K, x1 = 0.8 | 1026.31 ± 1.7 | 1536.1 ± 4.1 | 37.8 ± 0.8 | 6.382 ± 0.11
293.15 K, x1 = 0.8998 | 1012.14 ± 1.6 | 1525.5 ± 4.1 | 36.9 ± 0.8 | 3.627 ± 0.063
293.15 K, x1 = 1 | 997.91 ± 1.6 | 1513.2 ± 4.1 | 36.5 ± 0.8 | 2.132 ± 0.032
303.15 K, x1 = 0.1001 | 1106.6 ± 2 | 1588.7 ± 3.9 | 43.9 ± 0.8 | 252.99 ± 14
303.15 K, x1 = 0.2 | 1095.17 ± 2 | 1575.4 ± 3.9 | 42.3 ± 0.8 | 151.13 ± 5.9
303.15 K, x1 = 0.3 | 1083.52 ± 1.9 | 1562.2 ± 3.9 | 41.3 ± 0.8 | 85.6 ± 1.9
303.15 K, x1 = 0.4004 | 1070.78 ± 1.9 | 1548.9 ± 3.9 | 40.2 ± 0.8 | 46.14 ± 0.69
303.15 K, x1 = 0.5001 | 1058.92 ± 1.8 | 1538.5 ± 3.9 | 39.2 ± 0.8 | 25.54 ± 0.38
303.15 K, x1 = 0.6002 | 1045.86 ± 1.8 | 1526.5 ± 4 | 38.6 ± 0.8 | 14.29 ± 0.22
303.15 K, x1 = 0.7002 | 1032.59 ± 1.7 | 1514.2 ± 4 | 37.5 ± 0.8 | 8.268 ± 0.13
303.15 K, x1 = 0.8 | 1018.3 ± 1.6 | 1502.2 ± 4 | 36.7 ± 0.8 | 4.866 ± 0.081
303.15 K, x1 = 0.8998 | 1003.86 ± 1.5 | 1490.5 ± 4.1 | 36 ± 0.8 | 2.902 ± 0.049
303.15 K, x1 = 1 | 989.34 ± 1.6 | 1475 ± 4.1 | 35.2 ± 0.8 | 1.777 ± 0.027
313.15 K, x1 = 0.1001 | 1100.7 ± 2 | 1569.8 ± 3.8 | 43 ± 0.8 | 132.88 ± 4.6
313.15 K, x1 = 0.2 | 1088.99 ± 1.9 | 1555.1 ± 3.9 | 41.6 ± 0.8 | 82.06 ± 1.6
313.15 K, x1 = 0.3 | 1076.98 ± 1.9 | 1540.4 ± 3.9 | 40.6 ± 0.8 | 47.47 ± 0.66
313.15 K, x1 = 0.4004 | 1063.92 ± 1.8 | 1524.8 ± 3.9 | 39.4 ± 0.8 | 28.4 ± 0.4
313.15 K, x1 = 0.5001 | 1051.74 ± 1.7 | 1512.2 ± 3.9 | 38.3 ± 0.8 | 16.84 ± 0.24
313.15 K, x1 = 0.6002 | 1038.43 ± 1.7 | 1497.6 ± 3.9 | 37.6 ± 0.8 | 10.07 ± 0.15
313.15 K, x1 = 0.7002 | 1024.86 ± 1.6 | 1483.1 ± 4 | 36.4 ± 0.8 | 6.178 ± 0.096
313.15 K, x1 = 0.8 | 1010.29 ± 1.5 | 1468.6 ± 4 | 35.8 ± 0.8 | 3.794 ± 0.062
313.15 K, x1 = 0.8998 | 995.57 ± 1.5 | 1456.6 ± 4 | 35 ± 0.8 | 2.379 ± 0.04
313.15 K, x1 = 1 | 980.76 ± 1.7 | 1437.6 ± 4.1 | 34.2 ± 0.8 | 1.515 ± 0.023
323.15 K, x1 = 0.1001 | 1094.74 ± 1.9 | 1551.9 ± 3.8 | – | 75.13 ± 1.3
323.15 K, x1 = 0.2 | 1082.69 ± 1.9 | 1534.9 ± 3.8 | – | 46.57 ± 0.6
323.15 K, x1 = 0.3 | 1070.36 ± 1.8 | 1517.4 ± 3.9 | – | 29.62 ± 0.38
323.15 K, x1 = 0.4004 | 1057 ± 1.7 | 1500.3 ± 3.9 | – | 18.7 ± 0.25
323.15 K, x1 = 0.5001 | 1044.54 ± 1.7 | 1485.3 ± 3.9 | – | 11.73 ± 0.17
323.15 K, x1 = 0.6002 | 1030.97 ± 1.6 | 1469.1 ± 3.9 | – | 7.428 ± 0.11
323.15 K, x1 = 0.7002 | 1017.11 ± 1.5 | 1452.3 ± 3.9 | – | 4.758 ± 0.074
323.15 K, x1 = 0.8 | 1002.27 ± 1.4 | 1435.5 ± 4 | – | 3.06 ± 0.049
323.15 K, x1 = 0.8998 | 987.27 ± 1.6 | 1422.3 ± 4 | – | 1.994 ± 0.033
323.15 K, x1 = 1 | 972.16 ± 1.8 | 1400.6 ± 4 | – | 1.31 ± 0.02
